Columns and labels:
[1] = Stability: ligand exchange reaction with cysteine or glutathione; type: physicochemical; details: phosphate buffer pH 7.4, 37° C., up to 2 hours, TLC
Procedure: The stability of the ^99mTc(N) heterocomplexes obtained using PNP3 as a bisphosphinoamine compound in Example 1 was confirmed by ligand exchange reaction with cysteine or glutathione.
250.0 μL of phosphate buffer solution (0.20 M, pH=7.4), 100 μL of water and 100 μL of each of the ^99mTc(N) heterocomplexes purified were mixed with 50 μL of each of cysteine solutions having different concentrations of 10 mM and 1.0 mM, and the resulting mixture was placed in a polypropylene test tube and incubated in a thermostat at 37° C. A blank solution was obtained by mixing an equal volume of water without addition of cysteine. Aliquots of the resulting solutions were withdrawn at 15 min, 30 min, 60 min and 2 hours after the start of the incubation, and analyzed by TLC. The same experiment as above was carried out except for using glutathione in place of cysteine. All the ^99mTc(N) heterocomplex samples were found stable against transchelation by cystein or glutathione.

[2] = Biodistribution of the 99mTc(N) heterocomplexes in rats (organ uptake, heart accumulation, heart/lung and heart/liver ratios); type: in vivo, female Sprague-Dawley rats
Procedure: The biodistribution was measured by using female Sprague-Dawley rats (SD rats) weighing 200 g to 250 g. Each of the ^99mTc(N) heterocomplexes purified in the manner described above was diluted with phosphate buffer (0.1 M, pH=7.4) to obtain a final solution having an ethanol content of 10%. After the SD rats were anesthetized with an intramuscular injection of a mixture of ketamine (80 mg/kg) and xilazine (19 mg/kg), the jugular vein of each rat was surgically exposed and 100 μL (300 to 370 kBq) of the solution containing each ^99mTc(N) heterocomplexes prepared in the manner described above was injected in the jugular vein. The rats (n=3) were sacrificed by cervical dislocation at different times post injection. The blood was withdrawn from the heart through a syringe and counted. It was assumed that the whole blood content was 6.5% of the total body weight. The organs were excised from the rats, washed with physiological saline, weighed, and counted in a NaI well counter.
For comparison, Tables 19 and 20 show the results, obtained in the same manner as above, of measuring the biodistribution of (^99mTc) (MIBI) and (^99mTc) (Tf) which have been used as pharmaceuticals for diagnostic imaging for blood flow in myocardium.
Tables 21 to 23 show data showing the variations with time of heart accumulation, heart/lung ratios and heart/liver ratios for the ^99mTc(N) heterocomplexes of the present invention.

[3] = Measurement of Log k′ (partition ratio) by HPLC, PNP3 heterocomplexes; type: physicochemical; details: HPLC C18, methanol/phosphate buffer (0.02M, pH 7.4), 1.0 mL/min; extrapolated to 0% organic solvent
Procedure: For the various ^99mTc(N) heterocomplexes synthesized using PNP3 as a bisphosphinoamine compound in Example 1, Log k′ values were determined at various compositions of a mobile phase for HPLC. As the mobile phase, mixtures of methanol and phosphate buffer (0.02M, pH=7.4) were used at a flow rate of 1.0 mL/min. For each sample, the retention time was measured at a minimum of three different methanol concentrations in the mobile phase. The Log k′ values at 0% organic solvent (Log k′0) were extrapolated from the linear part of the curve Log k′=a+bC, where C is the methanol concentration, and Log k′ is Log (tR-to)/to wherein tR is HPLC retension time (min). The column void time (t0) was regarded as being equal to the elution time of pertechnetic acid.

- Stability [1]: Stable
- Biodistribution in rats: Adrenal glands ([2]; 0 min post injection): 2.68 ± 0.44 % ID/g
- Biodistribution in rats: Blood ([2]; 0 min post injection): 0.55 ± 0.32 % ID/g
- Biodistribution in rats: Brain ([2]; 0 min post injection): 0.23 ± 0.04 % ID/g
- Biodistribution in rats: Heart ([2]; 0 min post injection): 3.57 ± 0.14 % ID/g
- Biodistribution in rats: Intestine ([2]; 0 min post injection): 2.43 ± 0.49 % ID/g
- Biodistribution in rats: Kidneys ([2]; 0 min post injection): 10.40 ± 2.16 % ID/g
- Biodistribution in rats: Liver ([2]; 0 min post injection): 1.46 ± 0.05 % ID/g
- Biodistribution in rats: Lungs ([2]; 0 min post injection): 1.54 ± 0.03 % ID/g
- Biodistribution in rats: Muscle ([2]; 0 min post injection): 0.23 ± 0.04 % ID/g
- Biodistribution in rats: Spleen ([2]; 0 min post injection): 1.84 ± 0.49 % ID/g
- Biodistribution in rats: Submaxillary glands ([2]; 0 min post injection): 1.25 ± 0.47 % ID/g
- Biodistribution in rats: Adrenal glands ([2]; 2 min post injection): 2.87 ± 1.00 % ID/g
- Biodistribution in rats: Blood ([2]; 2 min post injection): 0.11 ± 0.01 % ID/g
- Biodistribution in rats: Brain ([2]; 2 min post injection): 0.03 ± 0.00 % ID/g
- Biodistribution in rats: Heart ([2]; 2 min post injection): 3.42 ± 0.19 % ID/g
- Biodistribution in rats: Intestine ([2]; 2 min post injection): 7.42 ± 1.03 % ID/g
- Biodistribution in rats: Kidneys ([2]; 2 min post injection): 11.57 ± 2.37 % ID/g
- Biodistribution in rats: Liver ([2]; 2 min post injection): 1.72 ± 0.26 % ID/g
- Biodistribution in rats: Lungs ([2]; 2 min post injection): 1.01 ± 0.49 % ID/g
- Biodistribution in rats: Muscle ([2]; 2 min post injection): 0.23 ± 0.01 % ID/g
- Biodistribution in rats: Spleen ([2]; 2 min post injection): 2.00 ± 0.07 % ID/g
- Biodistribution in rats: Submaxillary glands ([2]; 2 min post injection): 1.27 ± 0.05 % ID/g
- Biodistribution in rats: Adrenal glands ([2]; 10 min post injection): 2.30 ± 0.73 % ID/g
- Biodistribution in rats: Blood ([2]; 10 min post injection): 0.03 ± 0.00 % ID/g
- Biodistribution in rats: Brain ([2]; 10 min post injection): 0.02 ± 0.00 % ID/g
- Biodistribution in rats: Heart ([2]; 10 min post injection): 3.65 ± 0.56 % ID/g
- Biodistribution in rats: Intestine ([2]; 10 min post injection): 12.11 ± 2.92 % ID/g
- Biodistribution in rats: Kidneys ([2]; 10 min post injection): 6.74 ± 0.63 % ID/g
- Biodistribution in rats: Liver ([2]; 10 min post injection): 1.43 ± 0.47 % ID/g
- Biodistribution in rats: Lungs ([2]; 10 min post injection): 0.77 ± 0.10 % ID/g
- Biodistribution in rats: Muscle ([2]; 10 min post injection): 0.23 ± 0.07 % ID/g
- Biodistribution in rats: Spleen ([2]; 10 min post injection): 1.28 ± 0.12 % ID/g
- Biodistribution in rats: Submaxillary glands ([2]; 10 min post injection): 1.42 ± 0.24 % ID/g
- Biodistribution in rats: Adrenal glands ([2]; 20 min post injection): 2.69 ± 0.37 % ID/g
- Biodistribution in rats: Blood ([2]; 20 min post injection): 0.02 ± 0.01 % ID/g
- Biodistribution in rats: Brain ([2]; 20 min post injection): 0.02 ± 0.01 % ID/g
- Biodistribution in rats: Heart ([2]; 20 min post injection): 3.32 ± 0.18 % ID/g
- Biodistribution in rats: Intestine ([2]; 20 min post injection): 13.03 ± 3.19 % ID/g
- Biodistribution in rats: Kidneys ([2]; 20 min post injection): 6.12 ± 0.11 % ID/g
- Biodistribution in rats: Liver ([2]; 20 min post injection): 0.87 ± 0.52 % ID/g
- Biodistribution in rats: Lungs ([2]; 20 min post injection): 0.84 ± 0.06 % ID/g
- Biodistribution in rats: Muscle ([2]; 20 min post injection): 0.13 ± 0.02 % ID/g
- Biodistribution in rats: Spleen ([2]; 20 min post injection): 0.92 ± 0.10 % ID/g
- Biodistribution in rats: Submaxillary glands ([2]; 20 min post injection): 1.32 ± 0.21 % ID/g
- Biodistribution in rats: Adrenal glands ([2]; 30 min post injection): 2.94 ± 0.18 % ID/g
- Biodistribution in rats: Blood ([2]; 30 min post injection): 0.02 ± 0.00 % ID/g
- Biodistribution in rats: Brain ([2]; 30 min post injection): 0.02 ± 0.02 % ID/g
- Biodistribution in rats: Heart ([2]; 30 min post injection): 3.27 ± 0.36 % ID/g
- Biodistribution in rats: Intestine ([2]; 30 min post injection): 13.41 ± 4.62 % ID/g
- Biodistribution in rats: Kidneys ([2]; 30 min post injection): 5.67 ± 0.39 % ID/g
- Biodistribution in rats: Liver ([2]; 30 min post injection): 0.42 ± 0.01 % ID/g
- Biodistribution in rats: Lungs ([2]; 30 min post injection): 0.69 ± 0.12 % ID/g
- Biodistribution in rats: Muscle ([2]; 30 min post injection): 0.24 ± 0.08 % ID/g
- Biodistribution in rats: Spleen ([2]; 30 min post injection): 0.95 ± 0.02 % ID/g
- Biodistribution in rats: Submaxillary glands ([2]; 30 min post injection): 1.49 ± 0.22 % ID/g
- Biodistribution in rats: Adrenal glands ([2]; 60 min post injection): 2.17 ± 0.35 % ID/g
- Biodistribution in rats: Blood ([2]; 60 min post injection): 0.01 ± 0.00 % ID/g
- Biodistribution in rats: Brain ([2]; 60 min post injection): 0.01 ± 0.00 % ID/g
- Biodistribution in rats: Heart ([2]; 60 min post injection): 3.27 ± 0.62 % ID/g
- Biodistribution in rats: Intestine ([2]; 60 min post injection): 4.39 ± 2.86 % ID/g
- Biodistribution in rats: Kidneys ([2]; 60 min post injection): 4.24 ± 0.53 % ID/g
- Biodistribution in rats: Liver ([2]; 60 min post injection): 0.16 ± 0.05 % ID/g
- Biodistribution in rats: Lungs ([2]; 60 min post injection): 0.34 ± 0.11 % ID/g
- Biodistribution in rats: Muscle ([2]; 60 min post injection): 0.17 ± 0.01 % ID/g
- Biodistribution in rats: Spleen ([2]; 60 min post injection): 0.42 ± 0.11 % ID/g
- Biodistribution in rats: Submaxillary glands ([2]; 60 min post injection): 1.29 ± 0.28 % ID/g
- Biodistribution in rats: Adrenal glands ([2]; 120 min post injection): 2.53 ± 0.27 % ID/g
- Biodistribution in rats: Blood ([2]; 120 min post injection): 0.01 ± 0.00 % ID/g
- Biodistribution in rats: Brain ([2]; 120 min post injection): 0.01 ± 0.00 % ID/g
- Biodistribution in rats: Heart ([2]; 120 min post injection): 3.00 ± 0.42 % ID/g
- Biodistribution in rats: Intestine ([2]; 120 min post injection): 7.03 ± 2.61 % ID/g
- Biodistribution in rats: Kidneys ([2]; 120 min post injection): 3.48 ± 0.61 % ID/g
- Biodistribution in rats: Liver ([2]; 120 min post injection): 0.12 ± 0.03 % ID/g
- Biodistribution in rats: Lungs ([2]; 120 min post injection): 0.27 ± 0.05 % ID/g
- Biodistribution in rats: Muscle ([2]; 120 min post injection): 0.36 ± 0.15 % ID/g
- Biodistribution in rats: Spleen ([2]; 120 min post injection): 0.21 ± 0.03 % ID/g
- Biodistribution in rats: Submaxillary glands ([2]; 120 min post injection): 1.59 ± 0.19 % ID/g
- Log k′ (partition ratio) [3]: 3.82
Structure (SMILES): CCOCCN(CCOCC)C1=[S][99Tc+]2(#[N])([S]1)[P](CCCOC)(CCCOC)CCN(CCOC)CC[P]2(CCCOC)CCCOC [[^99mTc(N) (PNP3) (DBODC)]^+]

Source: patent publication US7445765B2, “Radiopharmaceutical for diagnostic imaging containing a technetium-99m nitride heterocomplex” (Nihon Medi-Physics Co., Ltd., priority 2000, dated 2008)
